Data on 4 substances can be found in US8901276B2, “Peptide reagents and methods for detection of colon dysplasia” (The Regents of the University of Michigan, priority 2010, dated 2014).

In assay [1] the test system is colonic adenomas. The assay can be described thus: In vivo NIR imaging of Cy5.5-labeled AKP peptides. Also on record: species or system CPC;Apc mice. Particulars: for T/B ratio: 100 μM, 1.5 mL topical, 5 min; for detection of lesions by size: adenomas ˜0.5 to 4 mm. The method, then:
The binding activity of the synthetic peptides to colonic dysplasia was assessed in vivo in 3 cohorts of CPC;Apc mice: 1) AKP-multimer, n=14 mice with n=33 adenomas, 2) AKP-monomer, n=14 mice with n=27 adenomas, and 3) trilysine core, n=8 mice with n=17 adenomas as a control. For the imaging studies, anesthesia was induced and maintained in the animals with inhaled isoflurane mixed with oxygen via a nose cone at a dose of 4% and 2% at a flow rate of 0.5 liter/min, respectively. Prior to applying the peptides, the colon was prepped using a tap water lavage. The adenomas were viewed endoscopically, and videos were recorded using white light with a small animal endoscope (Karl Storz Veterinary Endoscopy, Goleta, Calif.). The colon was rinsed with water until all mucous and other debris was removed. Adenomas from approximately 0.5-4 mm in diameter that were not covered in debris, including stool and mucous, were included in the study.
The Cy5.5-labeled peptides were delivered at a concentration of 100 μM in PBS containing 2.5% DMSO (dimethyl sulfoxide) through the instrument channel of the endoscope. During peptide administration, 1.5 mL of peptide was delivered to the distal colon in each mouse. The peptide was allowed to incubate for 5 min after which the colon was cleansed 3× with a tap water to remove the unbound peptide. Prior to imaging, the colon was inspected for residual peptide solution, and when clean, the colon was insufflated with air and imaged with the wide field endoscope which provides excitation at 671 nm. Fluorescence and reflectance videos were collected using Axiovision 4.8.1 software. Fluorescence videos were collected at 100 ms/frame (10 Hz), and transferred to the computer for storage by a firewire connection. A filter wheel was incorporated into the handle of the housing to quickly switch between collection of reflectance and fluorescence images. White light, fluorescence and reflectance images were collected from 1) n=14 mice having n=33 adenomas with AKP-multimer, 2) n=14 mice having n=27 adenomas with AKP-monomer, and 3) n=8 mice having n=17 adenomas with the trilysine (control). The CPC;Apc mice imaged ranged in age from 3 to 6 months. Fluorescence images were exported as videos in zvi format (16 bit digital resolution) using LabView software. Sequentially-collected white light and fluorescence images for each adenoma were analyzed. Separate regions of interest (ROI) were defined around the adenoma and adjacent normal-appearing mucosa on the white light image, and the ROI's were overlayed onto the fluorescence images. The target to-background (T/B) ratio was determined by ratioing the mean intensities from these 2 ROI's.

The test system of assay [2] is HT29 cells. Nature of the assay: Flow cytometry of FITC-labeled AKP peptides. The format is cell-based, human. The source says: (§1) Peptides labeled with 5-FITC were used for the validation assays of cell binding. Preferential binding of the multimer peptide, monomer peptide, and trilysine to different human colorectal cancer (SW480, and HT29) and control cells (CCD841-Con) was validated on flow cytometry. A total of 5×10^5 cells were used with each probe. The confluent cells were detached using enzyme free cell dissociation buffer (Invitrogen, Carlsbad, Calif.) or trypsin with 0.25% EDTA (Mediatech Inc, Manassa, Va.) and immersed in blocking buffer, PBS with 1% bovine serum albumin (BSA), for 30 min at 4° C. with continuous agitation. After blocking, cells were washed with 1×PBS and spun down for 5 min at 1000 rpm. Then cells were incubated with the 5-FITC labeled peptides and trilysine (10 μM) for 60 min at 4° C. with continuous agitation. The cells were then washed 3× with cold PBST followed by immediate fixation for 10 min with 4% paraformaldehyde. The cells were washed again (1×) with PBS and resuspended in 1 mL of PBS. Flow cytometry was performed using FACSDiVa (BD® LSRII, BD Biosciences, San Jose, Calif.) and analyzed using Flowjo analysis program (Tree Star Inc, Ashland, Oreg.). The gain was kept constant for all experiments.
(A flow cytometer gives signals particle by particle.)

Assay [3] has as its system CCD-841Con cells. Nature of the assay: Flow cytometry of FITC-labeled AKP peptides. The format is cell-based, human. Particulars: 10 μM, 60 min, 4° C.
From the text: as §1

For assay [4], the system named is SW480 cells. Nature of the assay: Flow cytometry of FITC-labeled AKP peptides. The format is cell-based, human. The following applies: 10 μM, 60 min, 4° C.
From the text: as §1

The test system of assay [5] is HT29 cells. Nature of the assay: Measurement of binding affinity by flow cytometry. The following applies: FITC-labeled, 0 to 10 μM, 4° C., 1 hr. Also on record: species or system human. The method, then:
(§2) The binding affinity of multimer and monomer peptide was measured by varying the concentration of the 5-FITC-labeled peptides and trilysine incubated with the target cells (1×10^5) until saturation of fluorscence intensity was achieved. The FITC-labeled peptide was serially diluted in PBS at concentrations that varied from 0 to 10 μM and incubated with the target cells at 4° C. for 1 hr. The unbound peptide was rinsed off the cells by washing 3× with cold PBS/0.2% Tween-20 solution. The cells were fixed with 4% PFA, as mentioned above, washed 1× with PBS, and resuspended in 1 mL of PBS. Cells were transferred to a 5 mL tube and subjected to flow-cytometric analysis. The median fluorescence intensity from each concentration of peptides was used to calculate the affinity constant. The equilibrium dissociation constants (Kd=1/Ka) of the peptide-cell interaction were obtained by fitting the data to the non-linear equation I[X]=(I0+ImaxKa[X])/(I0+Ka[X]). I0 and Imax are the initial and maximum fluorescence intensities, corresponding to no peptide and at saturation, respectively, and [X] represents the concentration of the bound peptide. Origin 6.1 data analysis software (Origin Lab Corp, Northampton, Mass.) was used to perform a non-linear least square fit of the data.

Assay [6] relates to SW480 cell line. Nature of the assay: Measurement of binding affinity by flow cytometry. Also on record: species or system human. The following applies: FITC-labeled, 0 to 10 μM, 4° C., 1 hr. The method, then: as §2
Assay [7] concerns HT29 cells. Nature of the assay: Kinetic measurements by flow cytometry. The format is binding, human. The following applies: for rate constant K: 10 μM, 4° C., 0-60 min, first order fit. The method, then:
The binding kinetics for AKP-monomer and AKP-multimer peptide was further evaluated on the target cells in the presence of 10 μM peptide concentration. The target cells (5×10^5) were detached and blocked as mentioned earlier and incubated with both monomer and multimer peptides at 4° C. over time from 0-60 min. After completing the incubation for each time course, the samples were prepared for flow cytometry, as mentioned above. The kinetics of peptide binding with the cell surface was determined by measuring the shift in the intensity of FITC-channel as a function of time. The resulting data were converted to median values as a function of time, and the rate constant was calculated using first order rate kinetics Y=a−b*exp^(−kx); where a=maximum value, b=difference in intensity (I−I0), and K=rate constant. Curve fits were performed using Origin 6.1 data analysis software.

Assay [8] has as its system HT29 cells. Nature of the assay: Fluorescence microscopy of FITC-labeled AKP peptides. The format is cell-based, human. The method, then:
(§3) Preferential binding of the FITC-labeled peptides to the target and non-target cells as mentioned above was further validated via fluorescence microscopy. Cells (˜7.5×10^3) were seeded on cover slips to ˜80% confluence. The cells were then incubated with 10 μM of 5-FITC-labeled peptides and trilysine at 4° C. for 1 hr followed by staining with 1 μg/mL Hoechst dye (Sigma Aldrich, St. Louis, Mo.). The cells were washed 3× with PBS and fixed with 4% paraformaldehyde at RT for 10 min. After fixation, the cells were washed again with PBS (1×) and mounted with ProLong Gold reagent (Invitrogen, Carlsbad, Calif.) and fluorescence images were collected with confocal microscopy (Leica TCS SP5 Microsystems, Bannockburn, Ill.). The specific peptide binding activity of the FITC-labeled AKP-multimer and AKP-monomer peptides was compared.

In assay [9] the test system is CCD-841Con cells. The assay is described as above. Format: cell-based, human. The following applies: 10 μM, 4° C., 1 hr. The method, then: as §3
In assay [10] the test system is SW480 cells. Described as above. The format is cell-based, human. The following applies: 10 μM, 4° C., 1 hr. The method, then:
as §3

Assay [11] relates to dysplastic crypts of excised polyps. Nature of the assay: Confocal fluorescence imaging of ex vivo binding. The following applies: ex vivo incubated polyps. More on the design: species or system CPC;Apc mice. The method, then: Preferential binding of the Peptide 1 compared to the Control peptide 1 on the adenomatous polyps was again confirmed with confocal microscopy. After peptide incubation, excised polyps were incubated ex vivo in 1 μg/mL Hoechst dye for 5 min to stain living nuclei, rinsed 3× with 1×PBS and imaged on an Olympus Confocal Microscope (Olympus, Tokyo, Japan).

In assay [12] the test system is colonic adenomas. The assay can be described thus: In vivo small animal fluorescence endoscopy with FITC-labeled peptides. The following applies: topical, 5 min incubation, mean±SD. More on the design: species or system CPC;Apc mice. The method, then:
Prior to peptide administration, the colon was prepped using a tap water lavage. Using a small animal endoscope (Karl Storz Veterinary Endoscopy, Goleta, Calif.) with an instrument channel for performing biopsy, polyps suitable for peptide administration were located and the colon was rinsed with water until all mucous was removed. FITC-labeled Peptide 1 and Control peptide 1 were delivered in 1×PBS through the instrument channel. The peptides were allowed to incubate for 5 minutes after which the colon was cleansed 3× with a tap water to remove the unbound peptide. […] Fluorescence excitation produced with a 450-475 nm passband filter that can be manually switched to the optical path of a 175 W Nova Xenon light source was delivered to the endoscope via a 3 mm diameter fluid light cable (250 cm length). Fluorescence images were collected with a 510 nm long-pass barrier filter to block the excitation light and detected with a 3-chip color camera with an integrated parfocal zoom lens. Real time video was recorded via firewire connected to a personal computer. Polyps in CPC;Apc mice developing distal colonic adenomas (Peptide 1, n=6 mice, n=18 polyps; Control peptide 1, n=4 mice, n=7 polyps) in addition to Cre recombinase negative littermate controls (Peptide 1, n=2 mice) and Hyperplastic Kras mice (Peptide 1, n=3 mice) were imaged using both white light and fluorescence endoscopy. […]

Assay [13] concerns isolated colonic epithelial cells from adenomas. Nature of the assay: Flow cytometry of FITC-conjugated phage clones. The format is cell-based, CPC;Apc mice. The text has this:
Specific binding of the candidate peptides to primary dysplastic colonic epithelial cells were validated on flow cytometry ex vivo and with small animal endoscopy in vivo using FITC-labeled peptides using a non-scanning white light endoscope.
Phages that bound to colonic adenomas approximately 10 times greater in number than to normal appearing colonic mucosa were chosen. As a result, 42 individual phage clones were sequenced from the third round of biopanning, and were individually amplified and conjugated to 5′-FITC. Binding to isolated colonic epithelial cells from adenomas for each phage clone was analyzed using flow cytometry. A common 7-mer phage that expresses the sequence HAIYPRH (SEQ ID NO: 29) is a known contaminant, and was run (labeled # in Supplementary FIG. 1B) to ensure the validity of the assay. […] Six phage clones with a T/B ratio (target to wild-type phage)>1.9 were identified as ALTPTPP (SEQ ID NO: 30), NLVNLLP (SEQ ID NO: 31), ANYPREP (SEQ ID NO: 32), ATTVPAS (SEQ ID NO: 33), LTTHYKL (SEQ ID NO: 26), and AKPGYLS (SEQ ID NO: 25). The KCCFPAQ (SEQ ID NO: 2) peptide had been previously found to bind to human HT29 cells.

Setting [14] is: cell line not specified (SW480, HT29, CCD-841Con tested).

Where no end group is shown, it is not given here.

In the case of “AKP-multimer: tetrameric version of AKPGYLS anchored on a trilysine core; Cy5.5 label in vivo, FITC label in vitro (also: tetramer on trilysine core, Cy5.5 or FITC label)”, in [1] (Cy5.5-labeled), the “NIR fluorescence signal from adenomas” value is “significantly amplified”. For the same substance, the “average fluorescence intensity from colonic adenomas relative to AKP-monomer and trilysine control” value in assay [1] (Cy5.5-labeled) was approximately 1.8 fold. Besides, the T/B ratio in [1] (Cy5.5-labeled) was found to be 3.84±0.26. For the same substance, the “detection of lesions by size” value in assay [1] was “detected all lesions regardless of size”. Moreover, the “counts relative to unstained cells” value in [2] (HT29, FITC-labeled, 10 μM, 60 min, 4° C.) was 26.1 times; in assay [3] it was 2.2 times; in assay [4], 20.2 times. The dissociation constant (Kd) is 6.4 nM in assay [5] and 101 nM in assay [6]. Further, the “binding speed relative to AKP-monomer” value in assay [7] was approximately 2 fold. Also, the “rate constant K” value in assay [7] and in [7] (listed as multimer) was 0.1136 min⁻¹ in each case. The “binding to plasma membrane” value in [8] (HT29, FITC-labeled, 10 μM, 4° C., 1 hr) is recorded as “bound specifically to the plasma membrane”; in assay [9], “not to CCD-841Con cells”; in [10], “bound specifically to the plasma membrane”.
“GGGAGGGA [FITC-Control peptide 1, control peptide containing Gly and Ala, FITC-labeled]”: the “binding to dysplastic crypts, confocal microscopy” value in assay [11] is given as “Minimal to no binding”. For the same substance, the “T/B (polyp/normal colon, target to background ratio)” value in assay [12] stood at 1.14±0.15.
With HAIYPRH, the “T/B ratio (target to wild-type phage)” value in [13] is listed as 1.10±0.08.
As for “AKPGYLSGGGSK-NH2 [AKP-monomer, Cy5.5 label in vivo, FITC label in vitro]”, in assay [1] (Cy5.5-labeled), the “NIR fluorescence signal from adenomas” value is reported as “faint fluorescence intensity” and the T/B ratio was determined as 2.21±0.13. In assay [1], the “detection of lesions by size” value was “did not visualize lesions smaller than ˜1 mm”. Further, the “extent of cell binding on flow cytometry” value in [2] (setting [14]) is listed as “bound to a lower extent than the AKP-multimer”. Further, binding in [5] was put at a Kd of 310 nM. In addition, the Kd in [6] is 1210 nM. The “rate constant K” value in assay [7] was 0.0663 min⁻¹. For the same substance, the “cell staining on microscopy” value in assay [8] (setting [14]) is on record as “lower fluorescence intensity at the cell surface”.

As usually defined, the Kd is the equilibrium constant for the complex coming apart. The low end stands for tighter binding, the high end for weaker binding.
